The test system of one experiment is blood glucose. As to the kind of experiment: Blood-glucose depression assay modified from the U.S. Pharmacopeia. The experiment is classed as in vivo. The note with it: 60 minutes after injection; for Blood glucose depression: 0.1 mg protein/100 gm body weight subcutaneous after overnight fast. From the text: weight by subcutaneous injection.
injection using a Beckman Glucose Analyzer 2.

Another experiment has as its target Concanavalin A (Canavalia ensiformis, UniProt P02866). As to the kind of experiment: Binding to and glucose displacement from immobilized Concanavalin A columns. Also noted: species or system Jack Bean. The method, then: At the point indicated by the arrow, 0.2M glucose in the column buffer was begun. Fractions (2.0 ml) were collected at a flow rate of 10-15 ml/h.
Displacement of hormone was accomplished using 1.0 ml pulses of column buffer containing varying amounts of glucose. Glucose content is indicated over the appropriate arrows. Fractions (1.7 ml) were collected at a flow rate of 10-15 ml/h.

With “Control insulin: porcine insulin (Lilly), unmodified”, the Blood glucose depression in the experiment with blood glucose (Animal A) was 75 mg %; in the experiment with blood glucose (Animal B), 70 mg %; in the experiment with blood glucose (Animal C), 79 mg %; with blood glucose (Animal D), 79 mg %; in the experiment with blood glucose (Animal E), 64 mg %; in the experiment on blood glucose (Animal F), 73 mg %. Moreover, the “Blood glucose depression, Mean ± S.E.M.” value in the experiment with blood glucose (Mean of animals A-F, 0.1 mg protein/100 gm body weight subcutaneous) came out at 73.33 ± 2.35 mg %. In addition, the “Binding to immobilized Concanavalin A” value in the experiment with Concanavalin A (20 mg applied to column, buffer 1 mM MgCl2, 1 mM CaCl2, 50 mM NaCl, 25 mM sodium phosphate, pH 7.4) was “did not bind”. Besides, the “Displacement from Concanavalin A binding sites by glucose” value with Concanavalin A (0.2M glucose in column buffer, 1,000:1 molar excess of glucose) was “none was eluted by the addition of glucose”.

The record behind these values is patent US4469681A, “Method and system for the controlled release of biologically active substances to a body fluid” (The Rockefeller University, priority 1981, dated 1984).
